Experimental data published in patent US9518018B2, “3-alkoxy, thioalkyl and amino-4-amino-6-(substituted)picolinates and their use as herbicides” (Dow AgroSciences LLC, priority 2011, dated 2016).

Experiments:
[1] = system: EPHHL: wild poinsettia (Euphorbia heterophylla); assay: Post-Emergent Test I herbicidal activity; format: in vivo; conditions: post-emergence, 336 h, read-out: Visual Growth Reduction (%)-14 Days after Application EPHHL; for pest or weed control at 140 g/ha: Table 3, 140 g ai/ha; for pest or weed control at 70 g/ha: Table 3, 70 g ai/ha
Procedure, shortened: (§1)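 Greenhouse-grown seedlings (peat-based mix, pH 6.0–6.8; ~15 h photoperiod, 23–29 °C day) were sprayed post-emergence at first/second true-leaf stage with compound in acetone/DMSO/aqueous crop-oil–surfactant carrier at 187 L/ha, using a twofold rate series. Injury was scored visually after 14 d (0–100%); GR20/GR50/GR80 derived by probit analysis.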

[2] = system: CHEAL: lambsquarters (Chenopodium album); assay: Post-Emergent Test I herbicidal activity; format: in vivo; conditions: Chenopodium album, post-emergence, 336 h, read-out: Visual Growth Reduction (%)-14 Days after Application CHEAL; for pest or weed control at 140 g/ha: Table 3, 140 g ai/ha; for pest or weed control at 70 g/ha: Table 3, 70 g ai/ha
Procedure, shortened: as §1

[3] = system: CYPES: yellow nutsedge (Cyperus esculentus); assay: Post-Emergent Test I herbicidal activity; format: in vivo; conditions: post-emergence, 336 h, read-out: Visual Growth Reduction (%)-14 Days after Application CYPES; for pest or weed control at 140 g/ha: Table 3, 140 g ai/ha; for pest or weed control at 70 g/ha: Table 3, 70 g ai/ha
Procedure, shortened: as §1

ZEAMX: corn (Zea mays) = assay: Post-Emergent Test I herbicidal activity; format: in vivo; conditions: Zea mays, post-emergence, 336 h, read-out: Visual Growth Reduction (%)-14 Days after Application ZEAMX; for pest or weed control at 140 g/ha: Table 3, 140 g ai/ha; for pest or weed control at 70 g/ha: Table 3, 70 g ai/ha
Procedure, shortened: as §1

[4] = system: ECHCG: barnyardgrass (Echinochloa crus-galli); assay: Post-Emergent Test I herbicidal activity; format: in vivo; conditions: post-emergence, 336 h, read-out: Visual Growth Reduction (%)-14 Days after Application ECHCG; for pest or weed control at 140 g/ha: Table 3, 140 g ai/ha; for pest or weed control at 70 g/ha: Table 3, 70 g ai/ha
Procedure, shortened: (§2)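 Visual injury ratings (0 = none, 100 = complete kill) taken 14 d after treatment, compared with untreated plants, feed probit-derived GR20/GR50/GR80. Application: overhead spray, 187 L/ha, highest rate and ½×-1/16× dilutions in acetone-DMSO-based aqueous spray mix with crop oil and surfactant, onto plants grown 7-21 d to first or second true leaf.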

[5] = system: ABUTH: velvetleaf (Abutilon theophrasti); assay: Post-Emergent Test I herbicidal activity; format: in vivo; conditions: Abutilon theophrasti, post-emergence, 336 h, read-out: Visual Growth Reduction (%)-14 Days after Application ABUTH; for pest or weed control at 140 g/ha: Table 3, 140 g ai/ha; for pest or weed control at 70 g/ha: Table 3, 70 g ai/ha
Procedure, shortened: as §1

[6] = system: ORYSA: rice (Oryza sativa); assay: Post-Emergent Test I herbicidal activity; format: in vivo; conditions: post-emergence, 336 h, read-out: Visual Growth Reduction (%)-14 Days after Application ORYSA; for pest or weed control at 140 g/ha: Table 3, 140 g ai/ha; for pest or weed control at 70 g/ha: Table 3, 70 g ai/ha
Procedure, shortened: as §2

Row | Compound | melting point | pest or weed control at 140 g/ha [1] | pest or weed control at 140 g/ha [2] | pest or weed control at 140 g/ha [3] | pest or weed control at 140 g/ha (ZEAMX: corn (Zea mays)) | pest or weed control at 140 g/ha [4] | pest or weed control at 140 g/ha [5] | pest or weed control at 140 g/ha [6] | pest or weed control at 70 g/ha [1] | pest or weed control at 70 g/ha [2] | pest or weed control at 70 g/ha [3] | pest or weed control at 70 g/ha (ZEAMX: corn (Zea mays)) | pest or weed control at 70 g/ha [4] | pest or weed control at 70 g/ha [5] | pest or weed control at 70 g/ha [6]
1 | COc1c(C(=O)O)nc(-c2ccc(C(F)(F)F)nc2)c(F)c1N [Compound 63] | 160 to 162 °C | 100% | 100% | 100% | 80% | 95% | 90% | 50% |  |  |  |  |  |  | 
2 | COC(=O)c1nc(-c2ccc(Cl)cc2)c(Cl)c(N)c1OC [Compound 44, methyl 4-amino-5-chloro-6-(4-chlorophenyl)-3-methoxypicolinate] | 139 to 141 °C | 0% | 100% | 100% | 15% | 0% | 50% | 0% |  |  |  |  |  |  | 
3 | COc1c(C(=O)O)nc(-c2cc(F)c(Br)cc2F)c(F)c1N [Compound 59] | 147 to 148 °C |  |  |  |  |  |  |  | 100% | 100% | 50% | 70% | 100% | 80% | 5%
4 | COc1c(C(=O)O)nc(-c2ccc3c(c2)OCO3)c(F)c1N [Compound 53] | 223 to 225 °C | 0% | 100% | 100% | 75% | 80% | 80% | 15% |  |  |  |  |  |  | 
5 | COc1c(C(=O)O)nc(-c2ccc(I)c(F)c2F)c(F)c1N [Compound 28] | 145 to 147 °C |  |  |  |  |  |  |  | 100% | 100% | 40% | 70% | 80% | 70% | 5%

The next lines start with results.

Row | melting point | Compound | pest or weed control at 140 g/ha [1] | pest or weed control at 140 g/ha [2] | pest or weed control at 140 g/ha [3] | pest or weed control at 140 g/ha (ZEAMX: corn (Zea mays)) | pest or weed control at 140 g/ha [4] | pest or weed control at 140 g/ha [5] | pest or weed control at 140 g/ha [6] | pest or weed control at 70 g/ha [1] | pest or weed control at 70 g/ha [2] | pest or weed control at 70 g/ha [3] | pest or weed control at 70 g/ha (ZEAMX: corn (Zea mays)) | pest or weed control at 70 g/ha [4] | pest or weed control at 70 g/ha [5] | pest or weed control at 70 g/ha [6]
6 | 153.5 to 155 °C | COc1c(C(=O)O)nc(-c2cc(F)c(Cl)cc2F)c(F)c1N [Compound 57] |  |  |  |  |  |  |  | 100% | 100% | 70% | 75% | 90% | 85% | 0%
7 | 141 to 143 °C | COC(=O)c1nc(-c2ccc(F)cc2)c(F)c(N)c1OC [Compound 36] | 100% | 100% | 100% | 60% | 0% | 100% | 0% |  |  |  |  |  |  | 
8 | 93 to 94 °C | CCOC(=O)c1nc(-c2ccc(Cl)c(OC)c2F)cc(N)c1SC [Compound 88, Ethyl 4-amino-6-(4-chloro-2-fluoro-3-methoxyphenyl)-3-(methylthio)picolinate] | 100% | 100% | 60% | 80% | 100% | 100% | 0% |  |  |  |  |  |  | 
